Data set [1] in a line: Determination of Log P (n-octanol/water partition). It counts as physicochemical. The conditions noted are these: 177Lu-labeled compound, mean of three tubes. On the procedure:
Three EP tubes were prepared, each containing 0.1 mL of saturated n-octanol and 80 μL of ultrapure water. Then, 20 μL (approximately 1 MBq) of the ^177Lu-labeled DB-13, DB-18, and DB-19 compound solutions were added to the respective tubes. After shaking evenly, the tubes were centrifuged at room temperature (2000 r/min, 5 minutes, centrifugation radius of 10 cm). From each tube, 100 μL was taken from both the lipid layer and the aqueous layer, and the radioactivity counts per minute for both phases were measured. The Log P values were calculated, and their mean values were taken as the final result.

Data set [2] deals with LNCaP cells. Kind of data set: Cell killing, CCK8 assay. Particulars: 177Lu-labeled, 45 μCi/mL, CCK8 on fifth day. It counts as cell-based. As to the method: A. LNCaP cells in the logarithmic growth phase were prepared into a cell suspension, and the cell density was adjusted to 1×10^5 cells/mL. 1 mL of the cell suspension was seeded into each well of a 24-well cell culture plate. The cells were cultured for 24 hours in a 37° C. incubator.
B. The ^177Lu-labeled compound (^177Lu-E-3) was prepared in serum-containing culture medium at radioactive concentrations of 5, 15, and 45 μCi/mL (the unlabeled E-3 was prepared at a corresponding precursor concentration for 45 μCi/mL).
C. The experimental groups were treated with 1 mL/well of the above ^177Lu-labeled compound solutions, while the control group was treated with 1 mL/well of serum-containing culture medium.
D. The cells were cultured in the incubator for 24 hours, after which the medium was entirely replaced with fresh culture medium.
E. On the fifth day, cell proliferation in each group was monitored using an enhanced CCK8 assay kit.
(Formazan colour is commonly taken as a measure of viable cells.)

The subject of data set [3] is PSMA-positive 22rv1 tumor-bearing mouse. Kind of data set: 177Lu labeling and animal biodistribution experiment, gamma counter. Particulars: 177Lu-labeled compound, 24 h after tail vein injection, n = 2. It counts as in vivo. As to the method:
Distribution in PSMA-positive tumor-bearing mouse tissues: Tumor-bearing animals (purchased from Shanghai Alamo Pharmaceutical Technology Co., Ltd.) were subcutaneously inoculated with 3×10^6 22rv1 cells (in 50% Matrigel, Corning) into the right shoulder region of 6-9 week old (Balb/c Nude) mouse. Once the tumors had grown to an appropriate size, ^177Lu-radiolabeled DB compounds were injected into the mouse via the tail vein (approximately 1.85 MBq-3.7 MBq/mouse, specific activity: 22423.82 Kbq/μg). After administration, the animals were euthanized using carbon dioxide inhalation at 24 hours. The blood and organs (blood, liver, kidney, muscle, tumor) were collected.
Blood was collected through the abdominal aorta and 100 μL was immediately quantified into designated centrifuge tubes (weighed). After collection, the organs were washed twice with deionized water, dried, placed in pre-weighed tubes, and weighed again to calculate the sample weight. Samples were measured on the day of collection. All blood and tissue samples were measured for radioactivity using a gamma counter. The results are shown in FIGS. 3, 4, 5, 6, 7, and Table 6.

Data set [4] has as its target PSMA-expressing cells (22Rv1) (Homo sapiens (Human), UniProt Q04609). Put plainly: Competitive binding against radiolabeled PSMA-617 ligand on 22Rv1 cells. Particulars: unlabeled compound vs radiolabeled PSMA-617 ligand, on ice 2 hours. On the procedure:
(1) 22Rv1 cells in the logarithmic growth phase were prepared into a cell suspension, and the cell density was adjusted to 1×10^4 cells/mL. 1 mL of the cell suspension was seeded into each well of a 24-well cell culture plate. The cells were cultured overnight in a 37° C. incubator.
(2) The cell culture medium was aspirated, and the cells were washed once with PBS. Then, 975 μL of additive-free medium was added.
(3) To each well, 25 μL of a fixed concentration of radiolabeled PSMA-617 ligand (final concentration in the medium: 2 μCi/mL) and different concentrations (final concentrations in the medium: 1000 ng/ml, 100 ng/mL, 10 ng/mL, 1 ng/mL, 0.1 ng/mL, 0.01 ng/mL, 0.001 ng/mL, 0 ng/ml) of the unlabeled test blocking compounds DB-18, DB-19, DB-13, E-3 were added.
(4) The cells were incubated on ice for 2 hours.
(5) The cells were washed three times with ice-cold PBS.
(6) The cells were lysed with 0.5 mL of 1 M sodium hydroxide, and washed twice with 0.5 mL PBS. The sodium hydroxide (0.5 mL) and PBS (0.5 mL×2) solutions were collected for uptake counting.

Data set [5] deals with albumin in rat plasma. Kind of data set: Plasma protein binding (PPB) test by ultrafiltration. The format is in vitro ADME. The conditions noted are these: 177Lu-labeled compound. On the procedure: The labeled compounds ^177Lu-E-3, 177Lu-DB-13, 177Lu-DB-18, and ^177Lu-DB-19 (1 μCi) were prepared in a reaction solution by adding 50 μL of PBS to achieve a concentration of 20 μCi/mL. 50 μL of the 20 μCi/mL reaction solution was added to 200 μL of plasma, repeated for 3 tubes. The mixture was mixed well and incubated at room temperature for 10 minutes, then added to ultrafiltration tubes and centrifuged at 13000 rpm for 45 minutes. Following this, 50 μL of normal saline was added and the samples were centrifuged again for 15 minutes. The upper chamber and the filtrate were respectively counted for radioactivity.
PPB=[(upper chamber counts−background counts]/(filtrate counts+upper chamber counts−2*background counts)]*100%.

The target of data set [6] is PSMA protein (Homo sapiens (Human), UniProt Q04609). Put plainly: Affinity of DB compounds to PSMA protein using Biacore (Effect Example 3). Particulars: Biacore 8K, 15° C., 1:1 binding model; pKD=−Log KD. On the procedure: The affinity of DB compounds to PSMA protein was tested using the Biacore 8K (Cytiva) instrument to detect ligand binding to PSMA protein (Sino Biological). PSMA protein was captured on an SA chip. Before fixing the ligand (flow paths 1 and 2, flow rate of 10 μL/min), PSMA protein (10 μg/mL, flow rate of 5 μL/min, injection time of 600 s) was fixed on flow path 2 using a flow buffer. The sensor surface was adjusted by continuously injecting 1 M NaCl three times in 50 mM NaOH. After each ligand injection, additional cleaning was performed using isopropanol in 1 M NaCl and 50 mM NaOH (flow paths 1 and 2, flow rate of 10 μL/min, injection time of 60 s).
All compounds were dissolved in 100% DMSO and diluted to 10 mM, then further diluted to the appropriate highest concentration in the analysis buffer (PBS, PH 7.4, 1 mM TCEP ([…]), 0.05% P20, 2% DMSO). The analysis was conducted under the following conditions: 15° C. analysis temperature; analysis steps=all set to LMW kinetics; cycle type=single cycle (90 s contact time, 1800 s dissociation time, 30 μL/min flow rate, flow paths 1 and 2); detection in flow=path 2-1. Data evaluation was performed using Biacore Insight Evaluation Software, fitting the data to a 1:1 binding model.
Biacore results are shown in Table 5: pKD=−Log KD, wherein KD is the binding affinity of the compound to PSMA protein measured by Biacore. It is expressed by Kd (M)=Kd (1/s)/Ka (1/Ms). A indicates pKD>8; B indicates 7<pKD<8; C indicates 6<pKD<7; D indicates pKD<6.
(In general: Surface plasmon resonance follows binding to a sensor surface in real time, without labels.)

For data set [7], the system named is 22rv1 tumor-bearing Balb/c Nude mouse. Kind of data set: Treatment efficacy in 22RV1 tumor-bearing mouse model. The format is in vivo. The conditions noted are these: two doses, 0.15 mCi and 0.45 mCi. On the procedure:
Balb/c Nude mouse, approximately 6-8 weeks old, were subcutaneously inoculated with 3×10^6 22rv1 cells (in 50% Matrigel, Corning) into the right scapular region. Once the tumors reached the required size for the experiment, the animals were randomly assigned into 11 experimental groups based on tumor volume, with 5 mouse per group. The body weight and tumor size of the animals were measured. On the day of grouping, treatments were administered as follows: control group (normal saline), group 1 (^177Lu-DB-13, 0.15 mCi/mouse), group 2 (^177Lu-DB-13, 0.45 mCi/mouse), group 3 (^177Lu-DB-13, 0.05 mCi/mouse), group 4 (^177Lu-B-11, 0.05 mCi/mouse), group 5 (^177Lu-DB-11, 0.15 mCi/mouse), group 6 (^177Lu-DB-11, 0.45 mCi/mouse), group 7 (^177Lu-PSMA-617, 0.15 mCi/mouse), group 8 (^177Lu-PSMA-617, 0.45 mCi/mouse), group 9 (^177Lu-DB-19, 0.05 mCi/mouse), group 10 (^177Lu-DB-19, 0.15 mCi/mouse), group 11 (^177Lu-DB-19, 0.45 mCi/mouse). After the start of treatment, general health and appearance were observed daily. Body weight and tumor size were measured at each sampling time point. Any abnormal observations during the study were recorded in the raw data.

Sequence of PSMA protein (Q04609 whole entry): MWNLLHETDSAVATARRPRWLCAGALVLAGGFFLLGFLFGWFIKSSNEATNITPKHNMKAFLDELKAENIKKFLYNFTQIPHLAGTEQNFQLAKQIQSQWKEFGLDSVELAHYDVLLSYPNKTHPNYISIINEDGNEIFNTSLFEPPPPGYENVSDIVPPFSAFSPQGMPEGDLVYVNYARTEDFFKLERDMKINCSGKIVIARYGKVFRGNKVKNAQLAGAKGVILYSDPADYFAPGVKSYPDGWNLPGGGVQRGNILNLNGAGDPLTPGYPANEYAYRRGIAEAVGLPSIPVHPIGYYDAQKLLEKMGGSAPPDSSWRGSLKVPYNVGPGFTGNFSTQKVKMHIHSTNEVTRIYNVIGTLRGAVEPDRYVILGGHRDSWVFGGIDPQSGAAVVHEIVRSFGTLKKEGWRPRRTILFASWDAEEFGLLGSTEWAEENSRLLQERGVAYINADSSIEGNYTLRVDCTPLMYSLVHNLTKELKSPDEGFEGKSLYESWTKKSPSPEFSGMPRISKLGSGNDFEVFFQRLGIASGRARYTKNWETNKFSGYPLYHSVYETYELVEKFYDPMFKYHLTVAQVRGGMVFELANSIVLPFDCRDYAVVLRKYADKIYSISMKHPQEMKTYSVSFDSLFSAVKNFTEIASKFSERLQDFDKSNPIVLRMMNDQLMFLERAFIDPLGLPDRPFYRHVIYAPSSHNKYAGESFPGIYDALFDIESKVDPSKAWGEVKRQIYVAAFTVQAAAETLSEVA
Sequence of PSMA-expressing cells (22Rv1) (Q04609 whole entry): as above

By logP is commonly meant the decadic logarithm of the partition coefficient of the neutral form, usually between octanol and water. For orientation: IC50 means the midpoint of a concentration-inhibition curve. For orientation: Kd means the equilibrium constant for the complex coming apart. Low readings indicate higher affinity, high ones lower affinity. Compound `O=C(O)CC[C@H](NC(=O)NC(CCCCNC(=O)[C@H](Cc1ccc2ccccc2c1)NC(=O)[C@H]1CC[C@H](NC(=O)CCC(=O)NCC(=O)N2CN(C(=O)CNC(=O)CCC(=O)N[C@H]3CC[C@H](C(=O)N[C@@H](Cc4ccc5ccccc5c4)C(=O)NCCCC[C@H](NC(=O)N[C@@H](CCC(=O)O)C(=O)O)C(=O)O)CC3)CN(C(=O)CNC(=O)CN3CCN(CC(=O)O)CCN(CC(=O)O)CCN(CC(=O)O)CC3)C2)CC1)C(=O)O)C(=O)O` (stereo partly shown) [DB-13] registered a logP in data set [1] of -1.96. Further, the cell-killing rate in data set [2] is recorded as 67%. In data set [3], this compound had a Blood uptake of 0.025 % ID/g, a Kidney uptake of 2.890 % ID/g, a Liver uptake of 0.115 % ID/g and a Muscle uptake of 0.060 % ID/g. The compound also came in with a Tumor uptake in data set [3] of 16.195 % ID/g. Moreover, the IC50 in data set [4] came out at 1.83 nM. For the same compound, in data set [5], the “plasma protein binding ratio (albumin binding ratio)” value is recorded as 90.84%. In data set [6], this compound showed a Kd of under 10 nM.

In data set [1], `O=C(O)CC[C@H](NC(=O)NC(CCCCNC(=O)[C@H](Cc1ccc2ccccc2c1)NC(=O)c1ccc2c(c1)CCN(C(=O)CNC(=O)c1cc(NC(=O)CNC(=O)CN3CCN(CC(=O)O)CCN(CC(=O)O)CCN(CC(=O)O)CC3)cc(C(=O)NCC(=O)N3CCc4cc(C(=O)N[C@@H](Cc5ccc6ccccc6c5)C(=O)NCCCC[C@H](NC(=O)N[C@@H](CCC(=O)O)C(=O)O)C(=O)O)ccc4C3)c1)C2)C(=O)O)C(=O)O` (stereo partly shown) [DB-19] showed a logP of -1.79. In addition, in data set [3], the Blood uptake stood at 1.715 % ID/g, the Kidney uptake turned out to be 177.885 % ID/g, the Liver uptake came to 2.725 % ID/g and the Muscle uptake came to 0.73 % ID/g. Also, in data set [4], the IC50 was determined as 0.93 nM. The “plasma protein binding ratio (albumin binding ratio)” value in data set [5] is 59.07%. In data set [6], the Kd was under 10 nM. In data set [7], the “tumor growth inhibition compared with PSMA-617” value is “superior tumor growth inhibition”.

(Values after patent US20250108139A1, “PEPTIDE UREA DERIVATIVE, PHARMACEUTICAL COMPOSITION CONTAINING PEPTIDE UREA DERIVATIVE, AND APPLICATION OF PEPTIDE UREA DERIVATIVE” (BIVISION PHARMACEUTICALS, INC, priority 2022, published 2025).)
